Test results as given in US20230340037A1, “INHIBITORS OF ?-SYNUCLEIN AGGREGATION AND USES THEREOF” (U[…] DE BARCELONA, priority 2020, published 2023).

How the values were obtained:
[1] = biological target: T1, toxic a-synuclein oligomer (type B*) (Homo sapiens, UniProt P37840, N122C); assay: dcFCCS and smFRET analysis of binding to toxic a-synuclein oligomer; conditions: peptide labeled with Atto647N; cross-correlation signal and smFRET events
T1 construct: made in house; host or cells: Escherichia coli BL21 (DE3), pET21a
Experimental: (§1) The relative binding affinities of inhibitors of the present disclosure to toxic a-synuclein oligomers, a-synuclein fibrils, and monomeric a-synuclein can be determined via […] (dcFCCS) as follows.
(§2) Dual-Colour FCCS (dcFCCS) experiments are performed on a Time-Resolved Fluorescence confocal microscope (e.g., MT200 from PicoQuant, Berlin, Germany) with a Time-Correlated Single Photon Counting (TCSPC) unit. Pulsed Interleaved Excitation (PIE) is used at laser powers of 6 μW (481 nm) and 5 μW (637 nm) measured after the dichroic mirror for optimal count rates while avoiding photobleaching and saturation. The coverslip is placed directly on the immersion water on top of the objective (e.g., Super Apochromat 60×NA 1.2 objective with a correction collar). The dichroic 488/640 nm is chosen as the main beam splitter. A 50 μm pinole is used. The emission light beam is split by a 50/50 beamsplitter into 2 detection paths. […] The software is also used for fitting the FCS and FCCS data as well as for a PIE-FRET analysis of the data from which the FRET efficiency (E) is calculated.
(§3) The binding of inhibitors of the present disclosure to toxic a-synuclein oligomers, a-synuclein fibrils, and monomeric a-synuclein can be determined via Förster resonance energy transfer (smFRET) as follows. […]

[2] = biological target: T2, a-synuclein fibrils (Homo sapiens, UniProt P37840, N122C); assay: dcFCCS and smFRET analysis of binding to a-synuclein fibrils; conditions: peptide labeled with Atto647N; cross-correlation signal and smFRET events
T2 construct: made in house; host or cells: Escherichia coli BL21 (DE3), pET21a
Experimental: as §1, §2, §3

[3] = biological target: T3, a-synuclein monomer (Homo sapiens, UniProt P37840, N122C); assay: dcFCCS and smFRET analysis of binding to a-synuclein monomer; conditions: peptide labeled with Atto647N
T3 construct: made in house; host or cells: Escherichia coli BL21 (DE3), pET21a
Experimental: as §1, §2, §3

[4] = biological target: T4, non-toxic a-synuclein oligomer (type A*) (Homo sapiens, UniProt P37840, N122C); assay: dcFCCS and smFRET analysis of binding to non-toxic a-synuclein oligomer; conditions: peptide labeled with Atto647N
T4 construct: made in house; host or cells: Escherichia coli BL21 (DE3), pET21a

[5] = biological target: T5, a-synuclein (Homo sapiens, UniProt P37840); assay: a-synuclein aggregation kinetics assay (thioflavin-T); assay type: biochemical; conditions: 70 μM a-synuclein, Th-T, equimolar and substoichiometric peptide concentrations, 32 h
T5 construct: made in house; host or cells: Escherichia coli BL21 (DE3), pET21a
Experimental: a-synuclein aggregation can be monitored as described in Pujols et al., 2018. Specifically, inhibition of in vitro a-synuclein aggregation at equimolar concentrations of a-synuclein and the tested inhibitor can be determined as follows:
A 96 well microtiter plate is prepared to contain, in each well, a Teflon polyball (3.175 mm in diameter, e.g., from Polysciences Europe GmbH, Eppelheim, Germany) and 150 μl of PBS containing 70 μM a-synuclein (prepared from diluting the 0.22 μm-filtered 210 μM a-synuclein solution described in example 1), 40 μM thioflavin-T and 70 μM of the tested inhibitor. 150 μl/well of PBS containing 70 μM a-synuclein and 40 μM thioflavin-T is used as a control. […] Every two hours, the fluorescence intensity is measured (e.g. using a Victor3.0 Multilabel Reader, PerkinElmer Waltham, MA, USA) by exciting the mixtures at 430-450 nm and measuring the emission intensity at 480-510 nm. […]
Parallel wells (e.g. triplicates) are prepared for each tested inhibitor and the control. For the measurement of each time interval, the measured fluorescence intensity of the respective parallel wells is averaged and then normalized to the maximum fluorescence of the control (a-synuclein without inhibitor) and fitted to the Finke-Watzky curve, accounting for fibril elongation and secondary nucleation. […]

[6] = system: SH-SY5Y neuroblastoma cells; assay: Toxic a-synuclein oligomer induced increase of intracellular reactive oxygen species; assay type: cell-based, human
Experimental: A stock solution of 80 μM toxic a-synuclein oligomer (prepared as described in example 3) and a stock solution of 80 μM toxic a-synuclein oligomer and 80 μM of the tested inhibitor are prepared in PBS and incubated for 15 min at 20° C. before being added to cell-containing wells as described below.
Human SH-SY5Y neuroblastoma cells (ATCC, #CRL-2266) cultured in growth medium (Eagle's Minimum Essential Medium (EMEM) supplemented with 10% […] (FBS)) are seeded onto a glass slide mounted with 8 removable wells (e.g., Nunc Lab-Tek II Chamber Slide System, #154941) with 0.5 mL cells/well at 0.5×10^6 cells/mL in growth medium for 24 h at 37° C. and 5% C02. […]
Then, a fluorogenic reagent for oxidative stress detection in live cells (e.g., a CellRox® reagent from Invitrogen, Carlsbad, USA, such as CellRox® Green) is added (final concentration of CellRox® Green 5 μM). […] The intracellular fluorescence of the treated SH-SY5Y cells is then analyzed with a confocal microscope (e.g. a Leica TCS SP5, Leica Microsystems, Wetzlar, Germany, with a HCX PL APO 63×1.4 oil immersion objective) equipped with a camera, using wave lengths for excitation and detection which are suitable for the used oxidative stress detection agent (for CellRox® Green: excitation at 488 nm and detection at 515-560 nm). […] ROS fluorescence are calculated from mean of 100 cells.

Molecule	interaction with toxic a-synuclein oligomer [1]	interaction with a-synuclein fibrils [2]	interaction with a-synuclein monomer [3]	interaction with non-toxic a-synuclein oligomer [4]	inhibition of a-synuclein aggregation [5]	generation of reactive oxygen species ([6]; coincubated with a-synuclein toxic oligomers, 10 μM)	cytotoxicity of toxic aS oligomers ([6]; neuroblastoma cell culture)
LL-37	interact with	interact with	not	not	inhibit a-synuclein aggregation	reduce the generation of reactive oxygen species	–
CSCC[C@H](N)C(=O)N[C@@H](CCC(=O)O)C(=O)N[C@@H](Cc1ccccc1)C(=O)N[C@H](C(=O)N[C@@H](C)C(=O)N[C@@H](CCCCN)C(=O)N[C@@H](CC(C)C)C(=O)N[C@@H](Cc1ccccc1)C(=O)N[C@@H](CCCCN)C(=O)N[C@@H](Cc1ccccc1)C(=O)N[C@@H](Cc1ccccc1)C(=O)N[C@@H](CCCCN)C(=O)N[C@@H](CC(=O)O)C(=O)N[C@@H](CC(C)C)C(=O)N[C@@H](CC(C)C)C(=O)NCC(=O)N[C@@H](CCCCN)C(=O)N[C@@H](Cc1ccccc1)C(=O)N[C@@H](CC(C)C)C(=O)NCC(=O)N[C@@H](CC(N)=O)C(=O)N[C@@H](CC(N)=O)C(=O)O)C(C)C [PSMα3]	–	–	–	–	–	–	reduced cytotoxicity
